Here are results for 22 compounds from article PMC4102417 (PLoS Neglected Tropical Diseases, 2014).

Structures can show the parent of a compound that is named as a salt. Where two headings read alike, the source gives them in different places.

In general, EC50 refers to the concentration at which the effect is half-maximal.

Assay [1] relates to T. cruzi (Tulahuen strain). The assay is described as follows: microbe, parasite or virus in culture. The format is cell-based, Trypanosoma cruzi. The following applies: Trypanosoma cruzi, TULAHUEN, Fibroblast; for activity at 10 µM: 120 h, Table S2, read-out: T. cruzi % growth @ 10 uM (Amastigotes); for EC50: read-out: T. cruzi EC50. The procedure, abridged:
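Tulahuen parasites expressing beta-galactosidase were added (1×10^4 trypomastigotes/well) to 3T3 fibroblasts plated 24 h earlier, 4 h before compound (10 µM final).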

The subject of assay [2] is 3T3 fibroblast cells. The assay is described as follows: cells. The format is cell-based, murine. Particulars: Mus musculus, NIH3T3, 72 h, 10 uM, Table S2; read-out: Mammalian (3T3) cell % growth at 10 uM.

As to `COc1ccc(-c2cc(=O)c3c(O)cc(O)cc3o2)cc1` [ACACETIN, 5,7-dihydroxy-2-(4-methoxyphenyl)-4H-chromen-4-one], the activity at 10 µM in assay [1] amounted to 23.1%; in assay [2], 77.4%.

As to `CC(C)=CCc1c(O)cc2occ(-c3ccc4c(c3)OCO4)c(=O)c2c1O` [DERRUBONE], the values for the activity at 10 µM in assay [1] and in assay [2] were 22.8% and 75.4%, respectively.

`CC(C)c1ccc2c(c1O)CCC1C3=C(CCC21C)C(=O)OC3` (stereo not shown) [TRIPTOPHENOLIDE, 6-hydroxy-1-methyl-5-(propan-2-yl)-13-oxatetracyclo[8.7.0.0^{2,7}.0^{11,15}]heptadeca-2,4,6,11(15)-tetraen-14-one]: the activity at 10 µM is 13.8% in assay [1] and 83.1% in assay [2].

For the compound `O=c1cc(-c2ccccc2)oc2c(O)c(O)ccc12` [7,8-DIHYDROXYFLAVONE, 7,8-dihydroxy-2-phenyl-4H-chromen-4-one], the activity at 10 µM turned out to be 1.3% in assay [1] and 72.6% in assay [2].

As to `O=c1c(-c2ccc(O)cc2)coc2cc(O)cc(O)c12` [GENISTEIN, 5,7-dihydroxy-3-(4-hydroxyphenyl)-4H-chromen-4-one], the activity at 10 µM in assay [1] turned out to be 6.4%; in assay [2], 100%.

On to `COc1cc2nc(N3CCN(C(=O)c4ccco4)CC3)nc(N)c2cc1OC` [PRAZOSIN HYDROCHLORIDE, 2-{4-[(furan-2-yl)carbonyl]piperazin-1-yl}-6,7-dimethoxyquinazolin-4-amine hydrochloride], for which the activity at 10 µM in assay [1] came to 1.8%; in assay [2], 70.7%. In addition, the EC50 is 8.36 µM in assay [1] (Table S2, amastigotes) and below 10 µM in assay [1].

For the compound `CC(=O)[C@H]1CC[C@H]2[C@@H]3CC[C@H]4C[C@@H](O)CC[C@]4(C)[C@H]3CC[C@]12C` [ALLOPREGNANOLONE, 1-[(1S,2S,5S,7S,10R,11S,14S,15S)-5-hydroxy-2,15-dimethyltetracyclo[8.7.0.0^{2,7}.0^{11,15}]heptadecan-14-yl]ethan-1-one], the values for the activity at 10 µM in assay [1] and in assay [2] were 3.7% and 100%, respectively.

As for `O=C(/C=C(/O)c1ccccc1)c1ccccc1O` [2',beta-DIHYDROXYCHALCONE, (2E)-3-hydroxy-1-(2-hydroxyphenyl)-3-phenylprop-2-en-1-one], the activity at 10 µM in assay [1] is 10%; in assay [2], 100%.

`C=C(C)C1CCC2(CO)CCC3(C)C(CCC4C5(C)CCC(O)C(C)(C)C5CCC43C)C12` (stereo not shown) [BETULIN, 5-(hydroxymethyl)-1,2,14,18,18-pentamethyl-8-(prop-1-en-2-yl)pentacyclo[11.8.0.0^{2,10}.0^{5,9}.0^{14,19}]henicosan-17-ol]: the activity at 10 µM in assay [1] came to 9.7%; in assay [2], 100%.

On to `CC12C=CC(=O)C=C1CCC1C2CCC2(C)C(=O)CCC12` (stereo not shown) [ANDROSTA-1,4-DIEN-3,17-DIONE, 2,15-dimethyltetracyclo[8.7.0.0^{2,7}.0^{11,15}]heptadeca-3,6-diene-5,14-dione], for which the activity at 10 µM in assay [1] is 25.1%; in assay [2], 72.1%.

As for `CC1CCC2(NC1)OC1CC3C4CCC5CC(O)CCC5(C)C4CCC3(C)C1C2C` (stereo not shown) [TOMATIDINE, 5',7,9,13-tetramethyl-5-oxaspiro[pentacyclo[10.8.0.0^{2,9}.0^{4,8}.0^{13,18}]icosane-6,2'-piperidine]-16-ol hydrochloride], the activity at 10 µM in assay [1] was 8.5%; in assay [2], 100%.

Turning to `N#Cc1nn(-c2c(Cl)cc(C(F)(F)F)cc2Cl)c(N)c1[S+]([O-])C(F)(F)F` (stereo not shown) [FIPRONIL, 5-amino-1-[2,6-dichloro-4-(trifluoromethyl)phenyl]-4-(trifluoromethane)sulfinyl-1H-pyrazole-3-carbonitrile], the activity at 10 µM stood at 3.7% in assay [1] and 100% in assay [2].

Regarding `CN1CCN(CCCN2c3ccccc3Sc3ccc(C(F)(F)F)cc32)CC1` [TRIFLUOPERAZINE, 10-[3-(4-methylpiperazin-1-yl)propyl]-2-(trifluoromethyl)-10H-phenothiazine], the activity at 10 µM worked out at 20.4% in assay [1] and 94.7% in assay [2].

Turning to `C=CC(C1=CC(=O)C(OC)=CC1=O)c1ccc(O)cc1` (stereo not shown) [DALBERGIONE, 4-METHOXY-4'-HYDROXY-, 2-[1-(4-hydroxyphenyl)prop-2-en-1-yl]-5-methoxycyclohexa-2,5-diene-1,4-dione], the activity at 10 µM in assay [1] came out at 5.1%; in assay [2] it was 94.8%.

As to `COC(=O)C[C@H]1C(C)(C)[C@@H](O)[C@@H]2CC3=C4CC(O)O[C@@H](c5ccoc5)[C@]4(C)CCC3[C@@]1(C)C2=O` (stereo partly drawn) [3,16-DIDEOXYMEXICANOLIDE-3beta-DIOL], the activity at 10 µM in assay [1] was 22.1%; in assay [2], 99.8%.

Regarding `CC(=O)OC1CC2C(C)(C)C(=O)CCC2(C)C2CCC3(C)C(c4ccoc4)OC(=O)C4OC43C12C` (stereo not shown) [DIHYDROGEDUNIN, 7-(furan-3-yl)-1,8,12,16,16-pentamethyl-5,15-dioxo-3,6-dioxapentacyclo[9.8.0.0^{2,4}.0^{2,8}.0^{12,17}]nonadecan-19-yl acetate], the values for the activity at 10 µM in assay [1] and in assay [2] were 5.8% and 81.4%, respectively.

With `COc1c(-c2coc3cc4c(cc3c2=O)CC(OC(C)=O)C(C)(C)O4)ccc2c1C=CC(C)(C)O2` (stereo not shown) [MUNDULONE ACETATE], the activity at 10 µM in assay [1] stood at 4.6%; in assay [2], 76%.

`COC(=O)C1(C)CCCC2(C)c3ccc(C(C)C)cc3C(=O)CC12` (stereo not shown) [7-OXOC[…], METHYL ESTER, methyl 1,4a-dimethyl-9-oxo-7-(propan-2-yl)-1,2,3,4,4a,9,10,10a-octahydrophenanthrene-1-carboxylate]: the activity at 10 µM in assay [1] came to 5.1%; in assay [2], 91.8%.

As for `CC1(C)C(=O)C=CC2(C)C1CC(O)C1(C)C2CCC2(C)C(c3ccoc3)OC(=O)C3OC321` (stereo not shown) [DEACETYLGEDUNIN, 7-(furan-3-yl)-19-hydroxy-1,8,12,16,16-pentamethyl-3,6-dioxapentacyclo[9.8.0.0^{2,4}.0^{2,8}.0^{12,17}]nonadec-13-ene-5,15-dione], the activity at 10 µM came out at 4.4% in assay [1] and 76% in assay [2].

Consider `CC(=O)N1CCN(c2ccc(OC[C@H]3CO[C@](Cn4ccnc4)(c4ccc(Cl)cc4Cl)O3)cc2)CC1` [KETOCONAZOLE, 1-[4-(4-{[(2R,4S)-2-(2,4-dichlorophenyl)-2-(1H-imidazol-1-ylmethyl)-1,3-dioxolan-4-yl]methoxy}phenyl)piperazin-1-yl]ethan-1-one], for which the activity at 10 µM was found to be 2.1% in assay [1] and 100% in assay [2]. The EC50 stood at 0.0003 µM in assay [1] (Table S2, amastigotes) and 0.001 µM in assay [1].

As to `CCC(=C(c1ccccc1)c1ccc(OCCN(C)C)cc1)c1ccccc1` [TAMOXIFEN, {2-[4-(1,2-diphenylbut-1-en-1-yl)phenoxy]ethyl}dimethylamine], the activity at 10 µM in assay [1] was 22.5%; in assay [2], 97%.

For the compound `CCCCCC(=O)O[C@]1(C(C)=O)CC[C@H]2C3CCC4=CC(=O)CCC4(C)[C@H]3CCC21C` (stereo partly drawn) [HYDROXYPROGESTERONE CAPROATE, (1S,11S,14R)-14-acetyl-2,15-dimethyl-5-oxotetracyclo[8.7.0.0^{2,7}.0^{11,15}]heptadec-6-en-14-yl hexanoate], the figures for the activity at 10 µM in assay [1] and in assay [2] were 1.8% and 100%, respectively. Further, the EC50 in assay [1] (Table S2, amastigotes) amounted to 10 µM.
